The values that follow come from patent US12252524B2, “GIP/GLP1 co-agonist compounds” (Eli Lilly and Company, priority 2018, dated 2025).

One may read the EC50 as the midpoint of the concentration-response curve.

Numbered stars: 1 amine (or outer) side, 2 acyl side, 3 side chain; on linkers, the order of the positions; unused ones are H or OH. Square brackets hold non-standard residues; d marks the D form. Side chains are listed from the residue outwards. Peptide text beside a SMILES is read from it. * marks the point of attachment. C20 diacid = O=C(O)CCCCCCCCCCCCCCCCCCC(=O)*; C18 diacid = O=C(O)CCCCCCCCCCCCCCCCC(=O)*; αMePhe(2-F) = C[C@](N)(Cc1ccccc1F)C(=O)O; γGlu = O=C(O)[C@H](CCC(=O)[*:2])N[*:1]; αMeY = C[C@](N)(Cc1ccc(O)cc1)C(=O)O; 4Pal = N[C@@H](Cc1ccncc1)C(=O)O; αMeL = CC(C)C[C@](C)(N)C(=O)O; αMeP = C[C@@]1(C(=O)O)CCCN1; Orn = NCCC[C@H](N)C(=O)O; AEEA = NCCOCCOCC(=O)O; Aib = CC(C)(N)C(=O)O Bounds are passed on as bounds.

In experiment [1] the target is human GLP-1 receptor (GLP-1R) (Homo sapiens, UniProt P43220). Kind of experiment: cAMP pharmacological functional assay in presence of casein, hGLP-1R. The format is cell-based. The following applies: HEK293 cells expressing hGLP-1R, 0.1% Casein, geometric mean; read-out: hGLP1R cAMP Rel EC50 nM (SEM, n).
The target in experiment [2] is T1, gastric inhibitory peptide receptor (GIPR) (Homo sapiens, UniProt P48546).
T1 sequence (P48546 22-466): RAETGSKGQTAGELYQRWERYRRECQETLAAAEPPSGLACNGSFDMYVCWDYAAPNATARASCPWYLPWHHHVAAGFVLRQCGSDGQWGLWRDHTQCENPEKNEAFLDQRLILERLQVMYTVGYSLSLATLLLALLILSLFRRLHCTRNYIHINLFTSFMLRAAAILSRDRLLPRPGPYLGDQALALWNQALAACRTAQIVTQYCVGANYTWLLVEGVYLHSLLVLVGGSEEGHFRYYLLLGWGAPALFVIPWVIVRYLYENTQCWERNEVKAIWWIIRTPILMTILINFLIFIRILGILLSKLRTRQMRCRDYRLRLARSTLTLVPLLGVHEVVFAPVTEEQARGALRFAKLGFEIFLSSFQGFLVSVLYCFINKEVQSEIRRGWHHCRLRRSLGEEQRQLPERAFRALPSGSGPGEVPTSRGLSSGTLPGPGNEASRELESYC
Kind of experiment: cAMP pharmacological functional assay in presence of casein, hGIPR. The format is cell-based. The note with it: HEK293 cells expressing hGIPR, 0.1% Casein, geometric mean; read-out: hGIPR cAMP Rel EC50 nM (SEM, n).

Chain of human GLP-1 receptor (GLP-1R) (P43220 24-463): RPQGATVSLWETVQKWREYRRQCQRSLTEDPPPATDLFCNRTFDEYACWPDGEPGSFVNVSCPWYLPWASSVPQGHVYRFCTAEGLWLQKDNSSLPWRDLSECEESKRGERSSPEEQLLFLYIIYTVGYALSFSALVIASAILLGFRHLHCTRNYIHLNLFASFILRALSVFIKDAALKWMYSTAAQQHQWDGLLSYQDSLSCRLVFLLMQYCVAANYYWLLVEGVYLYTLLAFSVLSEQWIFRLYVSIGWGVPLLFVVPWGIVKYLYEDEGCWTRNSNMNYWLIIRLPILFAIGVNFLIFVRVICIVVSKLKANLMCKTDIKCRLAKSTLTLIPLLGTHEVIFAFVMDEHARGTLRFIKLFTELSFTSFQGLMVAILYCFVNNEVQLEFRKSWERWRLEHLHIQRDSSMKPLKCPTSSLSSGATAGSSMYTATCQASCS

As for `CC[C@H](C)[C@H](NC(=O)[C@H](CC(C)C)NC(=O)[C@H](Cc1ccc(O)cc1)NC(=O)[C@@H](CCC(=O)O)NC(=O)[C@@H](NC(=O)[C@H](Cc1ccccc1)NC(=O)[C@@H](NC(=O)C(C)(C)NC(=O)[C@H](CCC(N)=O)NC(=O)[C@H](C)NC(=O)[C@H](CCCCNC(=O)COCCOCCNC(=O)COCCOCCNC(=O)CC[C@H](NC(=O)CCCCCCCCCCCCCCCCCCC(=O)O)C(=O)O)NC(=O)[C@H](CCC(=O)O)NC(=O)[C@H](CC(=O)O)NC(=O)[C@H](CC(C)C)NC(=O)[C@](C)(CC(C)C)NC(=O)[C@@H](NC(=O)[C@H](CO)NC(=O)[C@H](Cc1c[nH]cn1)NC(=O)[C@H](CC(=O)O)NC(=O)[C@H](CO)NC(=O)[C@@H](NC(=O)[C@](C)(Cc1ccccc1F)NC(=O)[C@@H](NC(=O)CNC(=O)[C@H](CCC(=O)O)NC(=O)C(C)(C)NC(=O)[C@@H](N)Cc1ccc(O)cc1)[C@@H](C)O)[C@@H](C)O)[C@@H](C)CC)[C@@H](C)O)[C@@H](C)CC)C(=O)N[C@@H](CCC(=O)O)C(=O)NCC(=O)NCC(=O)N1CCC[C@H]1C(=O)N[C@@H](CO)C(=O)N[C@@H](CO)C(=O)NCC(=O)N[C@@H](C)C(=O)N1CCC[C@H]1C(=O)N1CCC[C@H]1C(=O)N1CCC[C@H]1C(=O)N[C@@H](CO)C(N)=O` [Example 168] (H-Y[Aib]EGT[αMePhe(2-F)]TSDHSI[αMeL]LDEK([AEEA-AEEA-γGlu-C20 diacid])AQ[Aib]TFI[dE]YLIEGGPSSGAPPPS-NH2), the EC50 in experiment [1] is 1.8 nM; in experiment [2], 0.572 nM.

For the compound `CC[C@H](C)[C@H](NC(=O)[C@H](CC(C)C)NC(=O)[C@H](Cc1ccc(O)cc1)NC(=O)[C@H](CCC(=O)O)NC(=O)[C@@H](NC(=O)[C@H](Cc1ccccc1)NC(=O)[C@H](C)NC(=O)[C@@H](NC(=O)[C@H](CCC(N)=O)NC(=O)[C@H](C)NC(=O)[C@H](CCCCNC(=O)COCCOCCNC(=O)COCCOCCNC(=O)CC[C@H](NC(=O)CCCCCCCCCCCCCCCCCCC(=O)O)C(=O)O)NC(=O)[C@H](CCCCN)NC(=O)[C@H](CC(=O)O)NC(=O)[C@H](CC(C)C)NC(=O)[C@H](CC(C)C)NC(=O)[C@@H](NC(=O)[C@H](CO)NC(=O)[C@H](Cc1ccc(O)cc1)NC(=O)[C@H](CC(=O)O)NC(=O)[C@H](CO)NC(=O)[C@@H](NC(=O)[C@H](Cc1ccccc1)NC(=O)[C@@H](NC(=O)CNC(=O)[C@H](CCC(=O)O)NC(=O)C(C)(C)NC(=O)[C@@H](N)Cc1ccc(O)cc1)[C@@H](C)O)[C@@H](C)O)[C@@H](C)CC)[C@@H](C)O)[C@@H](C)CC)C(=O)N[C@@H](CCC(=O)O)C(=O)NCC(=O)NCC(=O)N1CCC[C@H]1C(=O)N[C@@H](CO)C(=O)N[C@@H](CO)C(=O)NCC(=O)N[C@@H](C)C(=O)N1CCC[C@H]1C(=O)N1CCC[C@H]1C(=O)N1CCC[C@H]1C(=O)N[C@@H](CO)C(N)=O` [Example 262] (H-Y[Aib]EGTFTSDYSILLDKK([AEEA-AEEA-γGlu-C20 diacid])AQTAFIEYLIEGGPSSGAPPPS-NH2), the figures for the EC50 in experiment [1] and in experiment [2] were 0.0943 nM and 0.13 nM, respectively.

In the case of `CC[C@H](C)[C@H](NC(=O)[C@H](CC(C)C)NC(=O)[C@H](Cc1ccc(O)cc1)NC(=O)[C@@H](CCC(=O)O)NC(=O)[C@@H](NC(=O)[C@H](Cc1ccccc1)NC(=O)[C@@H](NC(=O)C(C)(C)NC(=O)[C@H](CCC(N)=O)NC(=O)[C@H](C)NC(=O)[C@H](CCCCNC(=O)COCCOCCNC(=O)COCCOCCNC(=O)CC[C@H](NC(=O)CCCCCCCCCCCCCCCCCCC(=O)O)C(=O)O)NC(=O)[C@H](CCC(=O)O)NC(=O)[C@H](CC(=O)O)NC(=O)[C@H](CC(C)C)NC(=O)[C@](C)(CC(C)C)NC(=O)[C@@H](NC(=O)[C@H](CO)NC(=O)[C@H](Cc1c[nH]cn1)NC(=O)[C@H](CC(=O)O)NC(=O)[C@H](CO)NC(=O)[C@@H](NC(=O)[C@](C)(Cc1ccccc1F)NC(=O)[C@@H](NC(=O)CNC(=O)[C@H](CCC(=O)O)NC(=O)C(C)(C)NC(=O)[C@@H](N)Cc1ccc(O)cc1)[C@@H](C)O)[C@@H](C)O)[C@@H](C)CC)[C@@H](C)O)[C@@H](C)CC)C(=O)N[C@H](CCC(=O)O)C(=O)NCC(=O)NCC(=O)N1CCC[C@H]1C(=O)N[C@@H](CO)C(=O)N[C@@H](CO)C(=O)NCC(=O)N[C@@H](C)C(=O)N1CCC[C@H]1C(=O)N1CCC[C@H]1C(=O)N1CCC[C@H]1C(=O)N[C@@H](CO)C(N)=O` [Example 164] (H-Y[Aib]EGT[αMePhe(2-F)]TSDHSI[αMeL]LDEK([AEEA-AEEA-γGlu-C20 diacid])AQ[Aib]TFI[dE]YLI[dE]GGPSSGAPPPS-NH2), the EC50 in experiment [1] came out at 15.6 nM; in experiment [2], 3.09 nM.

On to `CC[C@H](C)[C@H](NC(=O)[C@H](CC(C)C)NC(=O)[C@H](Cc1ccc(O)cc1)NC(=O)[C@H](CCC(=O)O)NC(=O)[C@@H](NC(=O)[C@H](Cc1ccccc1)NC(=O)[C@H](C)NC(=O)[C@H](CCC(N)=O)NC(=O)[C@H](CCC(N)=O)NC(=O)[C@H](C)NC(=O)[C@H](CCCCNC(=O)COCCOCCNC(=O)COCCOCCNC(=O)CC[C@H](NC(=O)CCCCCCCCCCCCCCCCC(=O)O)C(=O)O)NC(=O)[C@H](CCC(=O)O)NC(=O)[C@H](CC(=O)O)NC(=O)[C@H](CC(C)C)NC(=O)[C@H](CC(C)C)NC(=O)[C@@H](NC(=O)[C@H](CO)NC(=O)[C@H](Cc1ccc(O)cc1)NC(=O)[C@H](CC(=O)O)NC(=O)[C@H](CO)NC(=O)[C@@H](NC(=O)[C@H](Cc1ccccc1)NC(=O)[C@@H](NC(=O)CNC(=O)[C@H](CCC(=O)O)NC(=O)[C@]1(C)CCCN1C(=O)[C@H](N)Cc1ccc(O)cc1)[C@@H](C)O)[C@@H](C)O)[C@@H](C)CC)[C@@H](C)CC)C(=O)N[C@@H](CCC(=O)O)C(=O)NCC(=O)NCC(=O)N1CCC[C@H]1C(=O)N[C@@H](CO)C(=O)N[C@@H](CO)C(=O)NCC(N)=O` [Example 198] (H-[dY][αMeP]EGTFTSDYSILLDEK([AEEA-AEEA-γGlu-C18 diacid])AQQAFIEYLIEGGPSSG-NH2), for which the EC50 was 0.139 nM in experiment [1] and above 30 nM in experiment [2].

In the case of `CC[C@H](C)[C@H](NC(=O)[C@H](CCCCN)NC(=O)[C@H](CC(C)C)NC(=O)[C@H](CC(C)C)NC(=O)[C@@H](NC(=O)[C@H](CO)NC(=O)[C@H](Cc1ccc(O)cc1)NC(=O)[C@H](CC(=O)O)NC(=O)[C@H](CO)NC(=O)[C@@H](NC(=O)[C@H](Cc1ccccc1)NC(=O)[C@@H](NC(=O)CNC(=O)[C@H](CCC(=O)O)NC(=O)C(C)(C)NC(=O)[C@@H](N)Cc1ccc(O)cc1)[C@@H](C)O)[C@@H](C)O)[C@@H](C)CC)C(=O)N[C@@H](C)C(=O)N[C@@H](CCC(N)=O)C(=O)NC(C)(C)C(=O)N[C@@H](C)C(=O)N[C@@H](Cc1ccccc1)C(=O)N[C@H](C(=O)N[C@@H](CCC(=O)O)C(=O)N[C@@H](Cc1ccc(O)cc1)C(=O)N[C@@H](CC(C)C)C(=O)N[C@H](C(=O)N[C@@H](CCC(=O)O)C(=O)NCC(=O)NCC(=O)N1CCC[C@H]1C(=O)N[C@@H](CO)C(=O)N[C@@H](CO)C(=O)NCC(=O)N[C@@H](C)C(=O)N1CCC[C@H]1C(=O)N1CCC[C@H]1C(=O)N[C@@H](CCCCNC(=O)COCCOCCNC(=O)COCCOCCNC(=O)CC[C@H](NC(=O)CCCCCCCCCCCCCCCCCCC(=O)O)C(=O)O)C(=O)N[C@@H](CO)C(N)=O)[C@@H](C)CC)[C@@H](C)CC` [Example 77] (H-Y[Aib]EGTFTSDYSILLKIAQ[Aib]AFIEYLIEGGPSSGAPPK([AEEA-AEEA-γGlu-C20 diacid])S-NH2), the EC50 was above 2000 nM in experiment [1] and 135 nM in experiment [2].

`CC[C@H](C)[C@H](NC(=O)[C@H](CC(C)C)NC(=O)[C@](C)(Cc1ccc(O)cc1)NC(=O)[C@@H](CCC(=O)O)NC(=O)[C@@H](NC(=O)[C@H](Cc1ccccc1)NC(=O)[C@H](CCC(=O)O)NC(=O)C(C)(C)NC(=O)[C@H](CCC(N)=O)NC(=O)[C@H](C)NC(=O)[C@H](CCC(N)=O)NC(=O)[C@H](CCCN)NC(=O)[C@H](CC(=O)O)NC(=O)[C@H](CC(C)C)NC(=O)[C@](C)(CC(C)C)NC(=O)[C@@H](NC(=O)[C@H](CO)NC(=O)[C@H](Cc1ccncc1)NC(=O)[C@H](CC(=O)O)NC(=O)[C@H](CO)NC(=O)[C@@H](NC(=O)[C@](C)(Cc1ccccc1F)NC(=O)[C@@H](NC(=O)CNC(=O)[C@H](CCC(=O)O)NC(=O)C(C)(C)NC(=O)[C@@H](N)Cc1ccc(O)cc1)[C@@H](C)O)[C@@H](C)O)[C@@H](C)CC)[C@@H](C)CC)C(=O)N[C@@H](CCC(=O)O)C(=O)NCC(=O)NCC(=O)N1CCC[C@H]1C(=O)N[C@@H](CO)C(=O)N[C@@H](CO)C(=O)NCC(=O)N[C@@H](C)C(=O)N1CCC[C@H]1C(=O)N1CCC[C@H]1C(=O)N1CCC[C@H]1C(=O)N[C@@H](CO)C(=O)N[C@@H](CS)C(N)=O` [Example 287] (H-Y[Aib]EGT[αMePhe(2-F)]TSD[4Pal]SI[αMeL]LD[Orn]QAQ[Aib]EFI[dE][αMeY]LIEGGPSSGAPPPSC-NH2): the EC50 was 0.112 nM in experiment [1] and 0.15 nM in experiment [2].
